Experimental data taken from doi:10.1101/2024.08.25.609621 (bioRxiv, 2024).
Where two headings read alike, the source gives them in different places.

Experiments:
[1] = biological target: SARS-CoV-2 NSP3 macrodomain (Mac1) (Severe acute respiratory syndrome coronavirus 2, UniProt P0DTD1); assay: biochemical; format: binding; conditions: for Hill slope: HTRF dose-response fit, Mac1; for SARS CoV-2 macrodomain HTRF assay: Hillslope: dose-response fit; for IC50: dose-response, read-out: SARS CoV-2 macrodomain HTRF assay: IC50
[2] = biological target: SARS-CoV-2 NSP3 macrodomain (Mac1), P43 crystal form (Severe acute respiratory syndrome coronavirus 2, UniProt P0DTD1); format: binding; conditions: for 1-BDC: PanDDA background density correction; for X-ray crystal structure: X-ray crystal structure determined (TRUE); for Total number of conformations: ligand conformations modeled in Mac1 crystal structure; for 2*(1-BDC) (%): occupancy estimate from PanDDA 1-BDC; for Binding site: site of ligand in X-ray crystal structure; for X-ray crystallography: Binding site: site where the ligand is bound in the X-ray crystal structure
[3] = crystal soak 10 mM, P43 crystals
[4] = crystal soak, soak concentration 10 mM
[5] = crystal soak, soak concentration 10 mM, TRUE = ligand hit
[6] = crystal soak 10 mM, TFA/DMSO background map

With CC(Nc1ncnc2[nH]ccc12)C1(O)CCCCC1 (centres unmarked) [AVI-4321] the Hill slope [1] was 1.2 and the “SARS CoV-2 macrodomain HTRF assay: Hillslope” value [1] was 1.2.
Cc1c[nH]c2ncnc(NCC3(O)CCS(=O)(=O)CC3)c12 [AVI-4199] was tested, and the IC50 [1] was > 1 mM.
In the case of OCC1CCC2(CCOCC2)CN1c1ncnc2[nH]ccc12 (centres unmarked) [AVI-4065], the Hill slope [1] is reported as 1.2 and the “SARS CoV-2 macrodomain HTRF assay: Hillslope” value [1] is reported as 1.2.
OCC(Cc1ccc(I)cc1)Nc1ncnc2[nH]ccc12 (centres unmarked) [AVI-3686] was tested, and the 1-BDC [2] was 0.2, the X-ray crystal structure [2] was “TRUE” and the “Pandda run, overall: Hit” value [2, 3] was “TRUE”. The “Pandda run, overall: Modeled” value [2, 3] was “TRUE”, the “PanDDA run, DMSO background map: 1-BDC” value ([2]; crystal soak 10 mM) was 0.2 and the “PanDDA run, DMSO background map: Hit” value ([2]; crystal soak 10 mM) was “TRUE”. For the same molecule, the “Total number of conformations” value [2] was 2, the “2*(1-BDC) (%)” value [2] was 40% and the Binding site [2] was “Adenosine”.
For OCC(CC(O)c1ccccc1)Nc1ncnc2[nH]ccc12 (centres unmarked) [AVI-3642], the 1-BDC [2] was 0.17, the X-ray crystal structure [2] was “TRUE” and the “Pandda run, overall: Hit” value [2, 3] was “TRUE”. For the same molecule, the “Pandda run, overall: Modeled” value [2, 3] was “TRUE”, the “PanDDA run, DMSO background map: 1-BDC” value ([2]; crystal soak 10 mM) was 0.17 and the “PanDDA run, DMSO background map: Hit” value ([2]; crystal soak 10 mM) was “TRUE”. For the same molecule, the “Total number of conformations” value [2] was 1, the “2*(1-BDC) (%)” value [2] was 34% and the Binding site [2] was “Adenosine”.
For OCC(Cc1c[nH]c2ccccc12)Nc1ncnc2[nH]ccc12 (centres unmarked) [AVI-3650], the 1-BDC [2] was 0.15, the X-ray crystal structure [2] was “TRUE” and the “Pandda run, overall: Hit” value [2, 3] was “TRUE”. For the same molecule, the “Pandda run, overall: Modeled” value [2, 3] was “TRUE”, the “PanDDA run, DMSO background map: 1-BDC” value ([2]; crystal soak 10 mM) was 0.15 and the “PanDDA run, DMSO background map: Hit” value ([2]; crystal soak 10 mM) was “TRUE”. The “Total number of conformations” value [2] was 2, the “2*(1-BDC) (%)” value [2] was 30% and the Binding site [2] was “Adenosine”.
In the case of O=S1(=O)CCC(O)(CNc2ncnc3[nH]ccc23)CC1 [AVI-4316], the IC50 [1] is reported as > 1 mM.
In the case of O=C(O)C(F)(F)F.OC[C@@H]1CC2(CC2)CN1c1ncnc2[nH]ccc12 [AVI-3710], the 1-BDC [2] is reported as 0.26, the “Pandda run, overall: Modeled” value [2, 4] is reported as “TRUE” and the “Pandda run, overall: Modeling comment” value [2, 4] is reported as “Weak density for open state of Phe132 loop”. The “Pandda run, overall: Hit” value [2, 5] was “TRUE”, the “Total number of conformations” value [2] was 2 and the “2*(1-BDC) (%)” value [2] was 52%. For the same molecule, the “X-ray crystallography: Binding site” value [2] was “Adenosine”, the “PanDDA run, DMSO background map: 1-BDC” value ([2]; soak concentration 10 mM) was 0.26 and the “PanDDA run, DMSO background map: Hit” value ([2]; soak concentration 10 mM) was “TRUE”.
O=C(O)C(F)(F)F.OC[C@@H](CCc1ccccc1)Nc1ncnc2[nH]ccc12 [AVI-3654] was tested, and the “Pandda run, overall: Hit” value [2, 3] was “TRUE”, the “Pandda run, overall: Modeling comment” value [2, 3] was “Weak density for phenyl, not modeled” and the “PanDDA run, DMSO background map: 1-BDC” value ([2]; crystal soak 10 mM) was 0.14. For the same molecule, the “PanDDA run, DMSO background map: Hit” value ([2]; crystal soak 10 mM) was “TRUE”, the “PanDDA run, TFA/DMSO background map: 1-BDC” value [2, 6] was 0.07 and the “PanDDA run, TFA/DMSO background map: Hit” value [2, 6] was “TRUE”.
OC[C@@H]1C[C@H](F)CN1c1ncnc2[nH]ccc12 [AVI-609] was tested, and the 1-BDC [2] was 0.17, the “Pandda run, overall: Modeled” value [2, 4] was “TRUE” and the “Pandda run, overall: Hit” value [2, 5] was “TRUE”. The “Total number of conformations” value [2] was 1, the “2*(1-BDC) (%)” value [2] was 34% and the “X-ray crystallography: Binding site” value [2] was “Adenosine”. For the same molecule, the “PanDDA run, DMSO background map: 1-BDC” value ([2]; soak concentration 10 mM) was 0.17 and the “PanDDA run, DMSO background map: Hit” value ([2]; soak concentration 10 mM) was “TRUE”.
